The source of these data is patent US20140377340A1, “HLA-DR BINDING PEPTIDES AND THEIR USES” (priority 2007, published 2014).

The structures appear in SMILES notation.

The target in one experiment is T1, purified HLA DRB1*0404 (Homo sapiens, UniProt P01903+P01911, A100R/A169T/F76Y/I96L/K127E/L162R/M171V/N62H/P40V/Q125Y/R42H/S133A/S149N/S66Y/V209L/W38E).
T1 construct: purified from EBV transformed homozygous cell lines or single MHC allele transfected 721.221, C1R, or fibroblast lines; made in house
In words: HLA-DR radioligand binding inhibition assay, DRB1*0404. The note with it: IC50 nM purified HLA DRB1 *0404, purified HLA DRB1*0404. A digest of the protocol: (§1)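 Competition binding: 1-10 nM radiolabeled peptide + 1 μM–1 nM HLA-DR, protease inhibitor cocktail, 2 d, RT or 37° C., pH 4–7. LB3.1 capture 3 h in 0.05% NP40/PBS; scintillation counting.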

Another experiment has as its target T2, purified HLA DRB1*0405 (Homo sapiens, UniProt P01903+P01911, A100R/A169T/D86S/F76Y/I96L/K127E/L162R/M171V/N62H/P40V/Q125Y/R42H/S133A/S149N/S66Y/V115G/V209L/W38E).
T2 construct: purified from EBV transformed homozygous cell lines or single MHC allele transfected 721.221, C1R, or fibroblast lines; made in house
Nature of the experiment: HLA-DR radioligand binding inhibition assay, DRB1*0405. The note with it: IC50 nM purified HLA DRB1 *0405, purified HLA DRB1*0405. A digest of the protocol:
as §1

The next experiment addresses T3, purified HLA DRB1*0701 (Homo sapiens, UniProt P01903+P01911, A100R/A102G/A103Q/D57E/D86V/E43K/F76Y/K127E/L162R/M171V/P40G/Q125H/Q99D/R33Q/R42Y/R54Q/S133A/S66F/T210M/V115G/Y107V/Y59L/Y89S).
T3 construct: purified from EBV transformed homozygous cell lines or single MHC allele transfected 721.221, C1R, or fibroblast lines; made in house
Nature of the experiment: HLA-DR radioligand binding inhibition assay, DRB1*0701. The note with it: IC50 nM purified HLA DRB1 *0701, purified HLA DRB1*0701. A digest of the protocol:
as §1

A further experiment has as its target T4, purified HLA DRB1*0802 (Homo sapiens, UniProt P01903+P01911, A100R/A103L/A169T/F76Y/H45Y/I96F/K41T/L162R/M171V/P40S/Q125H/Q178H/Q39Y/Q99D/R218S/R42G/S66Y/V115G/W38E).
T4 construct: purified from EBV transformed homozygous cell lines or single MHC allele transfected 721.221, C1R, or fibroblast lines; made in house
In words: HLA-DR radioligand binding inhibition assay, DRB1*0802. The note with it: IC50 nM purified HLA DRB1 *0802, purified HLA DRB1*0802. The method in brief: (§2)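 HLA-DR-bound radioactivity was read by scintillation counting after LB3.1 antibody capture of HLA-DR/peptide complexes. Beforehand, 1-10 nM labeled peptide was incubated 2 days with 1 μM to 1 nM purified HLA-DR (room temperature or 37° C, pH 4-7, protease inhibitor cocktail) and competitor peptides at […], in 2-4 independent runs.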

The next experiment has as its target T5, purified HLA DRB1*0901 (Homo sapiens, UniProt P01903+P01911, A100R/A103E/D57H/D86V/F55Y/F60I/F76Y/I96F/K127E/L162R/M171V/P40D/Q125H/Q99R/R33Q/R42F/S133A/S66N/T210M/V115G/W38K/Y107V/Y59G/Y89S).
T5 construct: purified from EBV transformed homozygous cell lines or single MHC allele transfected 721.221, C1R, or fibroblast lines; made in house
Nature of the experiment: HLA-DR radioligand binding inhibition assay, DRB1*0901. The note with it: IC50 nM purified HLA DRB1 *0901, purified HLA DRB1*0901. The procedure: Instead, wells of an opaque white 96-well Optiplate (Packard) are coated with 3 μg (100 μl@ 30 μg/ml) of HLA-specific antibody (Ab) that “capture” complexes of radiolabeled MHC and unlabeled peptide transferred from the molecular binding assay plate in 100 μl of 0.05% NP40/PBS. After a 3-hour incubation period, the supernatant is decanted and scintillation fluid (Microscint 20) added. Captured complexes are then measured on a microplate scintillation and luminescence counter (TopCount NXTTM; Packard).
HLA-DR purification. Fifteen distinct HLA-DR molecules were used in quantitative assays to measure the binding of peptides to solubilized HLA-DR molecules. […] Briefly, columns of inactivated Sepharose CL4B and Protein A Sepharose were used as pre-columns. HLA-DR molecules were captured by passage of lysates over LB3.1 monoclonal antibody (anti-HLA-DRA) columns. Antibody columns were washed with 10 mM Tris-HCL, pH8.0 with 1% (v/v) NP-40, followed by PBS containing 0.4% (w/v) n-octylglucoside.
Briefly, 1-10 nM of radiolabeled peptide was co-incubated for 2 days at either room temperature or 37° C. with 1 μM to 1 nM purified HLA-DR molecules in the presence of a cocktail of protease inhibitors. Assays were performed at various pH conditions, ranging from pH 4 to pH 7. […] After incubation, the percentage of HLA-DR-bound radioactivity is determined by capturing HLA-DR/peptide complexes on Optiplates (Packard Instruments, Meriden, Conn.) coated with the LB3.1 antibody and determining bound counts per minute using the TopCount microscintillation counter (Packard Instruments).

In the next experiment the target is T6, purified HLA DRB1*1101 (Homo sapiens, UniProt P01903+P01911, A100R/A169T/A87E/I96F/K41T/L162R/M171V/P40S/Q125H/Q178H/Q39Y/Q99D/R42S/S66Y/T262R/V115G/W38E).
T6 construct: purified from EBV transformed homozygous cell lines or single MHC allele transfected 721.221, C1R, or fibroblast lines; made in house
T6 sequence (P01903 26-254, other chains not shown): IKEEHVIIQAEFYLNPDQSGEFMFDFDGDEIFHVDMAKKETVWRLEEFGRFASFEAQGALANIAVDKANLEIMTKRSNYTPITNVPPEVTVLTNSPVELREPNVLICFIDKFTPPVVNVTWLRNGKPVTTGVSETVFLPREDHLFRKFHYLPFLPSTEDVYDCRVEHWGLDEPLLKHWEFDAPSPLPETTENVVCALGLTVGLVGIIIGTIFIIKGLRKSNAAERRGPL
In words: HLA-DR radioligand binding inhibition assay, DRB1*1101. The note with it: IC50 nM purified HLA DRB1 *1101, purified HLA DRB1*1101. The method in brief: as §1

The next experiment concerns the target T7, purified HLA DRB1*1201 (Homo sapiens, UniProt P01903+P01911, A100R/A169T/D57E/D86V/F55L/H45Y/K41T/L162R/M171V/P40S/Q125H/Q178H/Q39Y/Q99D/R42G/S66L/T262R/V114A/V67L/W38E/Y59H/Y61H/Y89S).
T7 construct: purified from EBV transformed homozygous cell lines or single MHC allele transfected 721.221, C1R, or fibroblast lines; made in house
Nature of the experiment: HLA-DR radioligand binding inhibition assay, DRB1*1201. The method in brief: as §2

The next experiment has as its target T8, purified HLA DRB1*1302 (Homo sapiens, UniProt P01903+P01911, A100E/A169T/K41T/L162R/M171V/P40S/Q125H/Q178H/Q39Y/Q99D/R42S/S66N/T262R/V115G/W38E/Y61H).
T8 construct: purified from EBV transformed homozygous cell lines or single MHC allele transfected 721.221, C1R, or fibroblast lines; made in house
Nature of the experiment: HLA-DR radioligand binding inhibition assay, DRB1*1302. The method in brief:
as §1

Another experiment has as its target T9, purified HLA DRB3*0101 (Homo sapiens, UniProt P01903+P79483).
T9 construct: purified from EBV transformed homozygous cell lines or single MHC allele transfected 721.221, C1R, or fibroblast lines; made in house
Nature of the experiment: HLA-DR radioligand binding inhibition assay, DRB3*0101. The note with it: IC50 nM purified HLA DRB3 *0101, purified HLA DRB3*0101. A digest of the protocol:
as §2

The target of the next experiment is T10, purified HLA DRB1*1501 (Homo sapiens, UniProt P01903+P01911).
T10 construct: purified from EBV transformed homozygous cell lines or single MHC allele transfected 721.221, C1R, or fibroblast lines; made in house
Nature of the experiment: HLA-DR radioligand binding inhibition assay, DRB1*1501. The method in brief:
as §1

The target of the next experiment is T11, purified HLA DRB4*0101 (Homo sapiens, UniProt P01903+P13762, G164S).
T11 construct: purified from EBV transformed homozygous cell lines or single MHC allele transfected 721.221, C1R, or fibroblast lines; made in house
Nature of the experiment: HLA-DR radioligand binding inhibition assay, DRB4*0101. The note with it: IC50 nM purified HLA DRB4 *0101, purified HLA DRB4*0101. The method in brief: as §1

A further experiment deals with T12, purified HLA DRB5*0101 (Homo sapiens, UniProt P01903+Q30154).
T12 construct: purified from EBV transformed homozygous cell lines or single MHC allele transfected 721.221, C1R, or fibroblast lines; made in house
Nature of the experiment: HLA-DR radioligand binding inhibition assay, DRB5*0101. The note with it: IC50 nM purified HLA DRB5 *0101, purified HLA DRB5*0101. The method in brief: as §1

Take `CC[C@H](C)[C@H](NC(=O)[C@H](CS)NC(=O)[C@H](CC(C)C)NC(=O)[C@H](CCCCN)NC(=O)[C@H](CCC(=O)O)NC(=O)[C@H](C)NC(=O)[C@@H](NC(=O)[C@H](CC(C)C)NC(=O)[C@@H]1CCCN1C(=O)[C@@H](NC(=O)[C@@H](N)[C@@H](C)O)[C@@H](C)CC)[C@@H](C)O)C(=O)N[C@@H](Cc1ccc(O)cc1)C(=O)N[C@H](C(=O)N[C@@H](CC(=O)O)C(=O)N[C@@H](CC(N)=O)C(=O)O)[C@@H](C)O` [Peptide 1622.01]: the IC50 on purified HLA DRB1*0404, at purified HLA DRB1*0405, at purified HLA DRB1*0701, on purified HLA DRB1*0802, at purified HLA DRB1*0901 and at purified HLA DRB1*1101 was greater than 20000 nM throughout. Besides, the IC50 at purified HLA DRB1*1201, on purified HLA DRB1*1302 and at purified HLA DRB3*0101 was greater than 20000 nM throughout.
Consider `CSCC[C@H](NC(=O)CNC(=O)[C@H](CC(C)C)NC(=O)CNC(=O)[C@H](Cc1ccc(O)cc1)NC(=O)[C@@H](N)CS)C(=O)N[C@@H](CCC(=O)O)C(=O)N[C@@H](Cc1c[nH]cn1)C(=O)N[C@@H](CC(C)C)C(=O)N[C@@H](CCCNC(=N)N)C(=O)N[C@@H](CCC(=O)O)C(=O)N[C@H](C(=O)N[C@@H](CCCNC(=N)N)C(=O)N[C@@H](C)C(=O)N[C@H](C(=O)O)C(C)C)C(C)C` [Peptide 9019.0044], for which the IC50 (commonly the point on the concentration scale where inhibition reaches its midpoint) at purified HLA DRB1*0404 is 493 nM; at purified HLA DRB1*0405, 5120 nM; on purified HLA DRB1*0701 it was 271 nM; on purified HLA DRB1*0802, greater than 20000 nM; on purified HLA DRB1*0901, greater than 20000 nM; on purified HLA DRB1*1201 it was 19000 nM. The values for the IC50 at purified HLA DRB1*1501, at purified HLA DRB3*0101 and on purified HLA DRB4*0101 were 690 nM, greater than 20000 nM and 444 nM, respectively.
`CC[C@H](C)[C@H](NC(=O)[C@@H](NC(=O)[C@H](Cc1c[nH]cn1)NC(=O)[C@@H](N)CC(C)C)C(C)C)C(=O)N[C@@H](CCCCN)C(=O)N[C@@H](CO)C(=O)N[C@@H](CC(=O)O)C(=O)N[C@@H](CC(C)C)C(=O)N[C@H](C(=O)N[C@@H](CC(N)=O)C(=O)N[C@@H](CCC(=O)O)C(=O)N[C@@H](CCC(=O)O)C(=O)N[C@@H](C)C(=O)N[C@H](C(=O)NCC(=O)O)[C@@H](C)O)C(C)C` [Peptide 9019.0005]: the IC50 at purified HLA DRB1*0405 was 37 nM; on purified HLA DRB1*0701, 3890 nM; at purified HLA DRB1*0802, greater than 20000 nM; at purified HLA DRB1*0901 it was greater than 20000 nM; at purified HLA DRB1*1201, greater than 20000 nM; at purified HLA DRB3*0101, greater than 20000 nM. On purified HLA DRB5*0101, this molecule displayed an IC50 greater than 20000 nM.
